Measured values reported in patent US7919465B2, “Peptide mimotopes that inhibits interaction between a platelet receptor and a platelet receptor ligand” (priority 2006, dated 2011).
Where two headings read alike, the source gives them in different places. Non-standard residues stand in square brackets, D forms with d. No end group written: not given here.

Tests used:
[1] = biological target: T1, GPIb-vWf interaction (Homo sapiens, UniProt P07359); assay: Flow cytometry inhibition of vWf binding to ristocetin-activated platelets in PRP; type: cell-based
T1 construct: Platelet rich plasma (PRP) was prepared from whole blood by centrifugation; endogenous in cells
Description: (§1) In order to prepare human platelets for testing, as approved by Canadian Blood Services' Ethics Board, samples of whole blood were drawn from healthy, consenting donors into 2.7-4.0 mL citrated tubes (BD, USA). Platelet rich plasma (PRP) was prepared from whole blood by centrifugation in a Beckman (CS-6R) bench-top centrifuge (r=203.57 mm, Beckman Coulter, USA) 164×g for 15 minutes. PRP from a number of unrelated donors were evaluated on an Adiva 120 Hematology Analyzer (Bayer, Canada) and standardized to a concentration of 300×10^9 platelets/L in HEPES buffered saline (HBS, 10 mM HEPES, 150 mM NaCl, pH 7.4).
Thereafter the samples were diluted and fixed with 1.0 mL 0.2% formolsaline (0.2% formaldehyde, 150 mM NaCl, pH 7.20) before analysis on a FACS Canto flow cytometer (BD, USA).
The effect of native HPG, free peptides, and peptide-conjugated HPG on activated platelets using modifications of the above assay systems was also examined. Platelets were treated with either 5 μL 4.2 mg/mL ristocetin (Chrono-Log, USA) or 100 U thrombin (T6884, Sigma-Aldrich, Canada) with 5 μL GPRP fibrin inhibitor (G5779, Sigma-Aldrich, Canada) dissolved in HBS. […] Controls included incubation with mouse IgG-FITC/IgG-PE (Beckman-Coulter, Canada) of the same isotype, and/or omitting the conjugate.

[2] = tested on: platelets; assay: Aggregometry, % aggregation on activation; type: cell-based, human; parameters: concentration or dose not given beside the values; conditions: ristocetin activation
Description: as §1
(§2) The effect of native HPG, free peptides, and peptide-conjugated HPG on activated platelets using modifications of the above assay systems was also examined. Platelets were treated with either 5 μL 4.2 mg/mL ristocetin (Chrono-Log, USA) or 100 U thrombin (T6884, Sigma-Aldrich, Canada) with 5 μL GPRP fibrin inhibitor (G5779, Sigma-Aldrich, Canada) dissolved in HBS. This was done to determine whether the peptides and the peptide-conjugates can mitigate vWf and thrombin mediated platelet effects. Controls included incubation with mouse IgG-FITC/IgG-PE (Beckman-Coulter, Canada) of the same isotype, and/or omitting the conjugate. As a result, native HPG, free peptides, and peptide-conjugated HPG neither did they increase vWf binding to resting platelets (Table 5) or they could trigger platelet activation.
The inhibition of platelet agglutination by vWf was observed both by light microscopy and lumiaggregometry (Table 5). No clumping was seen when resting platelets were incubated with free peptides, native HPG, or peptide-conjugated HPG.

[3] = tested on: CD62/P-selectin on platelet surfaces; assay: Flow cytometry of surface CD62 expression on platelets; type: cell-based, human; conditions: for Surface CD62 Expression, Activated Platelets: thrombin-activated platelets
Description: as §1
(§3) 40 μL aliquots of HBS were mixed with 5 μL PRP and 5 μL of the material to be tested: 500 kDa native HPG; free peptides; or peptide-conjugated HPG at 1.0×10^−3 M to 1.0×10^−9 M. After 40 minutes of incubation at ambient temperature, 5 μL 0.01 mg/mL FITC-conjugated polyclonal sheep anti-human vWf IgG (Abcam, USA) or 5 μL of 2 mg/mL PE-conjugated monoclonal mouse anti-human CD62 IgG (Beckman-Coulter, Canada) was added and incubation was continued in the dark for 30 min. Thereafter the samples were diluted and fixed with 1.0 mL 0.2% formolsaline (0.2% formaldehyde, 150 mM NaCl, pH 7.20) before analysis on a FACS Canto flow cytometer (BD, USA).
as §2, with “activation. […]” for “activation.”

[4] = tested on: vWf binding to resting platelets; assay: Flow cytometry of vWf binding to resting platelets; type: cell-based, human
Description: as §1, §3, §2

[5] = tested on: GPIb-vWf-mediated platelet agglutination; assay: Inhibition of ristocetin-mediated agglutination of washed platelets (microscopy, aggregometer); type: cell-based, human; conditions: for % agglutination (aggregometry): at 10 minutes, washed platelets, ristocetin
Description: (§4) Peptides on random 15-mer peptide arrays that were built of D-amino acids were selected on the basis of their ability to bind to vWf. Only four positive sequences were identified: D-pep1—[…] (SEQ ID NO:4); D-pep2—[…] (SEQ ID NO:5); D-pep3—[…] (SEQ ID NO:6); and D-pep4—[…] (SEQ ID NO:7). D-pep2 (SEQ ID NO:5), D-pep3 (SEQ ID NO:6) and D-pep4 (SEQ ID NO:7) were synthesized for laboratory experimentation. D-pep3 (SEQ ID NO:6), 10 mg, was synthesized by UBC's Peptide Proteomic Centre and was solubilized in Hepes-saline buffer, pH 7.4 and used at 0.1-0.5 mg/mL. Fresh washed platelets ([…]) in Hepes buffer were added and agglutination was initiated by 1.25 mg/mL ristocetin (Sigma). Agglutination times and levels were monitored both microscopically and on an aggregometer (ChronoLog) as described by the manufacturer.

[6] = biological target: purified vWf (Homo sapiens, UniProt P04275); assay: Random D-peptide array on cellulose membrane probed with purified vWf; type: binding; conditions: detected by HRP anti-human-vWf IgG
Text: Random D-amino acid peptides (15 mer) were synthesized and probed with vWf to detect random sequences capable of binding vWf.
Random peptide arrays of 1120 peptides made of D-amino acids were synthesized on a cellulose membrane using an AutoSpot ASP 222 peptide synthesizer (ABiMED, Langenfeld, Germany). Resulting replicate libraries of 15-mer sequences were probed for vWf binding function by exposing the membranes to purified vWf after blocking with skim milk to prevent non-specific binding of horseradish peroxidase labelled goat anti-human-vWf IgG. The chemiluminescent substrate from the Amersham Pharmacia ECL kit detected positive spots that were recorded on photographic film. Negative controls consisted of probing the membranes with the antibodies without prior exposure of the membrane to purified vWf.
as §4

[7] = expressed as peptide concentration
[8] = inhibition of platelet-vWf binding, molar concentration of peptide or conjugate
[9] = inhibition of platelet-vWf binding, molar concentration of peptide or conjugate, read-out: Ic50

Substance | Peptide Concentration at Ic50 (M) [1, 7] | Ic50 (M) [1, 8] | Aggregometry % Aggregation on Activation [2] [%] | Surface CD62 Expression, Resting Platelets [3] | Surface CD62 Expression, Activated Platelets [3] | vWf Binding, Resting Platelets [4] | vWf binding on random 15-mer D-peptide array [6] | also measured
D100: HPG 500 kDa conjugate with about 100 D-peptides per HPG molecule ([dC]GGGGGG[dR][dD][dK][dL]G[dI][dY][dA][dH][dS]; also: coupled through vinyl sulfone to 500 kDa hyperbranched polyglycerol (HPG), about 100 peptides per HPG) | No activity | No activity | 73 ± 5 | 18 ± 1 | 72 ± 1″ | 26 ± 3′ |  | 
LR100: HPG 500 kDa conjugate with about 100 L-retro peptides per HPG molecule (CGGGGGGRDKLGIYAHS; also: conjugated to HPG 500 kDa, about 100 L-retro peptides per HPG molecule, site not given here) |  |  |  | 18 ± 1 | 73 ± 2″ | 22 ± 2′ |  | inhibition of vWf binding to platelets (in words) [1]: effective inhibitors; IC50 [1, 9]: 0.49 µM
D-CGGGGGGRDKLGIYAHS [DR-pep] | No activity | No activity | 78 ± 5 | 27 ± 18 | 72 ± 3″ | 28 ± 3′ |  | 
bovine serum albumin [reference compound] |  |  |  |  |  |  |  | % agglutination (aggregometry) ([5]; 0.5 mg/mL): 55%
D-CGGGGGGRDKLGIYAHS [D-pep] | No activity | No activity | 80 ± 5 | 18 ± 2 | 68 ± 10″ | 14 ± 8′ |  | 
LR10: HPG conjugate with 10 L-retro peptides per HPG molecule (CGGGGGGRDKLGIYAHS; also: conjugated to HPG, 10 L-retro peptides per HPG molecule, site not given here) |  |  |  | 17 ± 2 | 72 ± 4″ | 24 ± 2′ |  | IC50 [1, 9]: 4.1 µM
D10: HPG 500 kDa conjugate with about 10 D-peptides per HPG molecule ([dC]GGGGGG[dR][dD][dK][dL]G[dI][dY][dA][dH][dS]; also: coupled through vinyl sulfone to 500 kDa hyperbranched polyglycerol (HPG), about 10 peptides per HPG) | No activity | No activity | 82 ± 5 | 14 ± 7 | 70 ± 6″ | 24 ± 2′ |  | 
RSARMQVCWNAFKNR ([dR][dS][dA][dR][dM][dQ][dV][dC][dW][dN][dA][dF][dK][dN][dR]) [D-pep3] |  |  |  |  |  |  | positive | % agglutination (aggregometry) ([5]; 0.1 mg/mL): 69%; % agglutination (aggregometry) ([5]; 0.25 mg/mL): 28%; % agglutination (aggregometry) ([5]; 0.5 mg/mL): 13%; ristocetin-mediated platelet agglutination by microscopy ([5]; 100-fold excess of peptide based on plasma vWf content, controls agglutinated within 5 minutes): prevented visible agglutination at 20 minutes
DSCPRDWDNNFLFFE ([dD][dS][dC][dP][dR][dD][dW][dD][dN][dN][dF][dL][dF][dF][dE]) [D-pep4] |  |  |  |  |  |  | positive | 
WQNEGTHVLSRCYEC ([dW][dQ][dN][dE]G[dT][dH][dV][dL][dS][dR][dC][dY][dE][dC]; cysteine pairing not given here) [D-pep2] |  |  |  |  |  |  | positive | 
CGGGGGGRDKLGIYAHS [LR-pep] |  |  | 5 ± 5 | 19 ± 2 | 70 ± 5″ | 25 ± 12′ |  | IC50 [1]: 34 µM
L10: HPG 500 kDa conjugate with about 10 L-peptides per HPG molecule (CGGGGGGSHAYIGLKDR; also: conjugated to HPG 500 kDa, about 10 L-peptides per HPG molecule, site not given here) |  |  |  | 17 ± 1 | 73 ± 5″ | 22 ± 5′ |  | inhibition of vWf binding to platelets (in words) [1]: effective inhibitors; IC50 ([1]; expressed as peptide concentration, read-out: Peptide Concentration at Ic50): 67 µM; IC50 [1, 9]: 6.7 µM
VSRQNGKQYWAIKEG ([dV][dS][dR][dQ][dN]G[dK][dQ][dY][dW][dA][dI][dK][dE]G) [D-pep1] |  |  |  |  |  |  | positive | 
